In the OPERA property sets (Mansouri et al. 2018):
Values after ≈ are worked out from the molar mass of the structure shown.

logP	solubility (25 °C) [µM]	Compound
2.65	–	CCOC(=O)C(=Cc1ccc(Cl)cc1)NC=O
2.05	–	CCOC(=O)C(=Cc1ccc([N+](=O)[O-])cc1)NC=O
2.41	–	CCOC(=O)C(=Cc1ccccc1Cl)NC=O
2.51	–	CCOC(=O)C(=Cc1cccc(Cl)c1)NC=O
2.05	–	CCOC(=O)C(=Cc1cccc([N+](=O)[O-])c1)NC=O
2.48	–	CCOC(=O)C(=Cc1ccccc1)NC=O

The next lines start with the molecule.

Compound	logP	solubility (25 °C) [µM]
CCOC(=O)C(=Cc1ccoc1)NC=O	2.08	1790 (≈ 374 µg/mL)
CCOC(=O)C(=Cc1ccc2c(c1)OCO2)NC=O	1.66	–
CCOC(=O)C(=Cc1ccc(OC)c(OC)c1)NC=O	1.97	–
CCOC(=O)C(=Cc1ccc(OC)cc1)NC=O	2.22	–
